The record followed here is patent US20240270762A1, “PENICILLIN-BINDING PROTEIN INHIBITORS” (priority 2021, published 2024).

A value given as a limit tells only on which side of the number the result lay.

For test [1], the target named is T1, A. baumannii PBP1a (Acinetobacter baumannii, UniProt A0ABX6CK30).
T1 sequence (A0ABX6CK30 1-851): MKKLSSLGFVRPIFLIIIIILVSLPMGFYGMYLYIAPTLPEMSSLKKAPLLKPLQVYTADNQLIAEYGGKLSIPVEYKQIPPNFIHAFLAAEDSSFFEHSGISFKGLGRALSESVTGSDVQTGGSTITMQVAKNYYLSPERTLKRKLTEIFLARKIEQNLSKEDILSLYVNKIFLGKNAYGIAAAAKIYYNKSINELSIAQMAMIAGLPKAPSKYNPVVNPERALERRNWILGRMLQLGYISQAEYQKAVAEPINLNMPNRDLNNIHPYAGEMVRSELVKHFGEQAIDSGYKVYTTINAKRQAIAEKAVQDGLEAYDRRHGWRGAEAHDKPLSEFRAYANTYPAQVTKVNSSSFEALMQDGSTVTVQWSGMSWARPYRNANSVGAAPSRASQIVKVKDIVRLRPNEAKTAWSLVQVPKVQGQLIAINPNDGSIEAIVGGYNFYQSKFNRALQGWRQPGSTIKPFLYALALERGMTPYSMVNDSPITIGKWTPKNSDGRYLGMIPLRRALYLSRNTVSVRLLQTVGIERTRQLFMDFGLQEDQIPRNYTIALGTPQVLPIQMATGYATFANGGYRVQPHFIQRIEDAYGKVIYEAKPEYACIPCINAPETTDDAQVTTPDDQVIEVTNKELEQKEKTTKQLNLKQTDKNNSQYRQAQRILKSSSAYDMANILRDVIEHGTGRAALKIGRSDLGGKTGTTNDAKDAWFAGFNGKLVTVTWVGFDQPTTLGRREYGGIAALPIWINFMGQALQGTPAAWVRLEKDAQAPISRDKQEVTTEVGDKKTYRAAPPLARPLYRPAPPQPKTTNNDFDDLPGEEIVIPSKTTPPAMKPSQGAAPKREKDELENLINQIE
The test can be described thus: Bocillin-FL competition binding via gel filtration, A. baumannii PBP1a. Particulars: competition binding assay using Bocillin-FL via gel filtration; read-out: A. baumannii PBP1a Potency. A digest of the protocol: (§1)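 Competitive equilibrium binding; reporter Bocillin-FL. PBP + inhibitor (titration) pre-incubated → Bocillin-FL, 15 min → gel filtration → fluorescence. EC50 from Hill fit of fraction bound vs [inhibitor].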

The target of test [2] is A. baumannii PBP2 (Acinetobacter baumannii, UniProt D0C8Z9). The test can be described thus: Bocillin-FL competition binding via gel filtration, A. baumannii PBP2. In a few lines:
as §1
On the technique in general: Size exclusion chromatography separates by hydrodynamic size, large species first.

A. baumannii PBP2, sequence (D0C8Z9 whole entry): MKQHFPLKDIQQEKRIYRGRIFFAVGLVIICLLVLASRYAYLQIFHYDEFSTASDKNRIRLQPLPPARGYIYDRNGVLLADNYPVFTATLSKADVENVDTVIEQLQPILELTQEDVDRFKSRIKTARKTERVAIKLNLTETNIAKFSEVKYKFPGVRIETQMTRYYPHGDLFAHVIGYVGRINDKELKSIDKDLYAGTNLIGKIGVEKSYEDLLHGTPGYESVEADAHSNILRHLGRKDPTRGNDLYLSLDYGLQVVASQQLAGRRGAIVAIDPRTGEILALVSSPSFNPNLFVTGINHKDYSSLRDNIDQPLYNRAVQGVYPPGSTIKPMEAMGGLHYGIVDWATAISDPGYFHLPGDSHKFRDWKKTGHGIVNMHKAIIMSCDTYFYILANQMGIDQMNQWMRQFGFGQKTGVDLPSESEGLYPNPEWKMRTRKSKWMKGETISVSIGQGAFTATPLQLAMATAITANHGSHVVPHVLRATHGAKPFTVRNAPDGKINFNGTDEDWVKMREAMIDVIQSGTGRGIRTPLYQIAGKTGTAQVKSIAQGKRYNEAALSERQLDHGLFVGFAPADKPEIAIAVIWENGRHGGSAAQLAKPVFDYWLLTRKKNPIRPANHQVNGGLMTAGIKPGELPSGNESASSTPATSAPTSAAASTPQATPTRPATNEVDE

For `O=C(NCCCN1CCN(C(=O)NC(C(=O)N[C@H]2Cc3ccc(F)c(C(=O)O)c3OB2O)c2cc(F)c(O)c(O)c2Cl)C(=O)C1=O)c1ccccc1` (stereo partly drawn) [Example 202, (3R)-3-(2-(4-(3-benzamidopropyl)-2,3-dioxopiperazine-1-carboxamido)-2-(2-chloro-5-fluoro-3,4-dihydroxyphenyl)acetamido)-7-fluoro-2-hydroxy-3,4-dihydro-2H-benzo[e][1,2]oxaborinine-8-carboxylic acid], the figures for the EC50 in test [1] and in test [2] were 10 to 50 µM and 50 to 250 µM, respectively. In the case of `O=C(NCCCN1CCN(C(=O)NC(C(=O)N[C@H]2Cc3ccc(F)c(C(=O)O)c3OB2O)c2cc(F)c(O)c(O)c2Cl)C(=O)C1=O)c1ccc(O)cc1` (stereo partly drawn) [Example 203, (3R)-3-(2-(2-chloro-5-fluoro-3,4-dihydroxyphenyl)-2-(4-(3-(4-hydroxybenzamido)propyl)-2,3-dioxopiperazine-1-carboxamido)acetamido)-7-fluoro-2-hydroxy-3,4-dihydro-2H-benzo[e][1,2]oxaborinine-8-carboxylic acid], the figures for the EC50 in test [1] and in test [2] were less than 10 µM and 10 to 50 µM, respectively.

As to `O=C(NCCCN1CCN(C(=O)NC(C(=O)N[C@H]2Cc3ccc(F)c(C(=O)O)c3OB2O)c2cc(F)c(O)c(O)c2Cl)C(=O)C1=O)c1cccc(O)c1` (stereo partly drawn) [Example 204, (3R)-3-(2-(2-chloro-5-fluoro-3,4-dihydroxyphenyl)-2-(4-(3-(3-hydroxybenzamido)propyl)-2,3-dioxopiperazine-1-carboxamido)acetamido)-7-fluoro-2-hydroxy-3,4-dihydro-2H-benzo[e][1,2]oxaborinine-8-carboxylic acid], the EC50 in test [1] and in test [2] was 10 to 50 µM in each case.

`O=C(NCCCN1CCN(C(=O)NC(C(=O)N[C@H]2Cc3ccc(F)c(C(=O)O)c3OB2O)c2cc(F)c(O)c(O)c2Cl)C(=O)C1=O)c1ccncc1` (stereo partly drawn) [Example 205, (3R)-3-(2-(2-chloro-5-fluoro-3,4-dihydroxyphenyl)-2-(4-(3-(isonicotinamido)propyl)-2,3-dioxopiperazine-1-carboxamido)acetamido)-7-fluoro-2-hydroxy-3,4-dihydro-2H-benzo[e][1,2]oxaborinine-8-carboxylic acid]: the EC50 in test [1] is 50 to 250 µM; in test [2] it was 10 to 50 µM. On the same counts, the results for `O=C(NCCN1CCN(C(=O)NC(C(=O)N[C@H]2Cc3ccc(F)c(C(=O)O)c3OB2O)c2cc(F)c(O)c(O)c2Cl)C(=O)C1=O)c1ccc(O)cc1` (stereo partly drawn) [Example 214, (3R)-3-(2-(2-chloro-5-fluoro-3,4-dihydroxyphenyl)-2-(4-(2-(4-hydroxybenzamido)ethyl)-2,3-dioxopiperazine-1-carboxamido)acetamido)-7-fluoro-2-hydroxy-3,4-dihydro-2H-benzo[e][1,2]oxaborinine-8-carboxylic acid] are 10 to 50 µM and 10 to 50 µM. For `O=C(NCCN1CCN(C(=O)NC(C(=O)N[C@H]2Cc3ccc(F)c(C(=O)O)c3OB2O)c2cc(F)c(O)c(O)c2Cl)C(=O)C1=O)c1ccncc1` (stereo partly drawn) [Example 216, (3R)-3-(2-(2-chloro-5-fluoro-3,4-dihydroxyphenyl)-2-(4-(2-(isonicotinamido)ethyl)-2,3-dioxopiperazine-1-carboxamido)acetamido)-7-fluoro-2-hydroxy-3,4-dihydro-2H-benzo[e][1,2]oxaborinine-8-carboxylic acid] the same measures were 10 to 50 µM and 10 to 50 µM.

For the compound `O=C(NCCN1CCN(C(=O)NC(C(=O)N[C@H]2Cc3ccc(F)c(C(=O)O)c3OB2O)c2cc(F)c(O)c(O)c2Cl)C(=O)C1=O)Nc1ccc(O)cc1` (stereo partly drawn) [Example 219, (3R)-3-(2-(2-chloro-5-fluoro-3,4-dihydroxyphenyl)-2-(4-(2-(3-(4-hydroxyphenyl)ureido)ethyl)-2,3-dioxopiperazine-1-carboxamido)acetamido)-7-fluoro-2-hydroxy-3,4-dihydro-2H-benzo[e][1,2]oxaborinine-8-carboxylic acid], the EC50 in test [1] was less than 10 µM; in test [2] it was 10 to 50 µM. For `O=C(NCCN1CCN(C(=O)NC(C(=O)N[C@H]2Cc3ccc(F)c(C(=O)O)c3OB2O)c2cc(F)c(O)c(O)c2Cl)C(=O)C1=O)Nc1cccc(O)c1` (stereo partly drawn) [Example 220, (3R)-3-(2-(2-chloro-5-fluoro-3,4-dihydroxyphenyl)-2-(4-(2-(3-(3-hydroxyphenyl)ureido)ethyl)-2,3-dioxopiperazine-1-carboxamido)acetamido)-7-fluoro-2-hydroxy-3,4-dihydro-2H-benzo[e][1,2]oxaborinine-8-carboxylic acid] the same measures were less than 10 µM and less than 10 µM.

In the case of `O=C(NCCN1CCN(C(=O)N[C@@H](C(=O)N[C@H]2Cc3ccc(F)c(C(=O)O)c3OB2O)c2cc(F)c(O)c(O)c2Cl)C(=O)C1=O)Nc1cccnc1` [Example 222, (R)-3-((R)-2-(2-chloro-5-fluoro-3,4-dihydroxyphenyl)-2-(2,3-dioxo-4-(2-(3-(pyridin-3-yl)ureido)ethyl)piperazine-1-carboxamido)acetamido)-7-fluoro-2-hydroxy-3,4-dihydro-2H-benzo[e][1,2]oxaborinine-8-carboxylic acid], the EC50 in test [1] and in test [2] was 10 to 50 µM each time. `O=C(NCCCN1CCN(C(=O)NC(C(=O)N[C@H]2Cc3ccc(F)c(C(=O)O)c3OB2O)c2cc(F)c(O)c(O)c2Cl)C(=O)C1=O)Nc1ccc(O)cc1` (stereo partly drawn) [Example 227, (3R)-3-(2-(2-chloro-5-fluoro-3,4-dihydroxyphenyl)-2-(4-(3-(3-(4-hydroxyphenyl)ureido)propyl)-2,3-dioxopiperazine-1-carboxamido)acetamido)-7-fluoro-2-hydroxy-3,4-dihydro-2H-benzo[e][1,2]oxaborinine-8-carboxylic acid]: the EC50 in test [1] and in test [2] was 10 to 50 µM throughout. For `O=C(NCCCN1CCN(C(=O)NC(C(=O)N[C@H]2Cc3ccc(F)c(C(=O)O)c3OB2O)c2cc(F)c(O)c(O)c2Cl)C(=O)C1=O)Nc1ccncc1` (stereo partly drawn) [Example 228, (3R)-3-(2-(2-chloro-5-fluoro-3,4-dihydroxyphenyl)-2-(2,3-dioxo-4-(3-(3-(pyridin-4-yl)ureido)propyl)piperazine-1-carboxamido)acetamido)-7-fluoro-2-hydroxy-3,4-dihydro-2H-benzo[e][1,2]oxaborinine-8-carboxylic acid], the EC50 in test [1] and in test [2] was 10 to 50 µM each time. `O=C(NCCN1CCN(C(=O)NC(C(=O)N[C@H]2Cc3ccc(F)c(C(=O)O)c3OB2O)c2cc(F)c(O)c(O)c2Cl)C1=O)c1nccs1` (stereo partly drawn) [Example 247, (3R)-3-(2-(2-chloro-5-fluoro-3,4-dihydroxyphenyl)-2-(2-oxo-3-(2-(thiazole-2-carboxamido)ethyl)imidazolidine-1-carboxamido)acetamido)-7-fluoro-2-hydroxy-3,4-dihydro-2H-benzo[e][1,2]oxaborinine-8-carboxylic acid]: the EC50 in test [2] fell in the range of 10 to 50 µM. On the same count and under the same terms, the result for `O=C(NCCS(=O)(=O)N1CCN(C(=O)NC(C(=O)N[C@H]2Cc3ccc(F)c(C(=O)O)c3OB2O)c2cc(F)c(O)c(O)c2Cl)C1=O)c1ccccc1` (stereo partly drawn) [Example 260, (3R)-3-(2-(3-((2-benzamidoethyl)sulfonyl)-2-oxoimidazolidine-1-carboxamido)-2-(2-chloro-5-fluoro-3,4-dihydroxyphenyl)acetamido)-7-fluoro-2-hydroxy-3,4-dihydro-2H-benzo[e][1,2]oxaborinine-8-carboxylic acid] reads 10 to 50 µM; that for `O=C(NCCCS(=O)(=O)N1CCN(C(=O)NC(C(=O)N[C@H]2Cc3ccc(F)c(C(=O)O)c3OB2O)c2cc(F)c(O)c(O)c2Cl)C1=O)c1cccnc1` (stereo partly drawn) [Example 273, (3R)-3-(2-(2-chloro-5-fluoro-3,4-dihydroxyphenyl)-2-(3-((3-(nicotinamido)propyl)sulfonyl)-2-oxoimidazolidine-1-carboxamido)acetamido)-7-fluoro-2-hydroxy-3,4-dihydro-2H-benzo[e][1,2]oxaborinine-8-carboxylic acid], 10 to 50 µM. As to `O=C(NCCCS(=O)(=O)N1CCN(C(=O)NC(C(=O)N[C@H]2Cc3ccc(F)c(C(=O)O)c3OB2O)c2cc(F)c(O)c(O)c2Cl)C1=O)Nc1ccc(O)cc1` (stereo partly drawn) [Example 276, (3R)-3-(2-(2-chloro-5-fluoro-3,4-dihydroxyphenyl)-2-(3-((3-(3-(4-hydroxyphenyl)ureido)propyl)sulfonyl)-2-oxoimidazolidine-1-carboxamido)acetamido)-7-fluoro-2-hydroxy-3,4-dihydro-2H-benzo[e][1,2]oxaborinine-8-carboxylic acid], the EC50 in test [1] is less than 10 µM.
